The text below walks through data of ChEMBL document CHEMBL1201862, “PubChem BioAssay data set” (2004).

A word on the GI50: it is the concentration that inhibits growth by half.

Common to all, as to assay: DTP human tumour cell line panel, 48 h
Test [1] deals with HCT-15.
The test system of test [2] is HT-29.
Test [3] concerns CCRF-CEM.
For test [4], the system named is SK-OV-3.
The test system of test [5] is HOP-92.
Test [6] deals with PC-3.
Test [7] has as its system Hs-578T.
Test [8] concerns SR.
In test [9] the test system is SNB-19.
Test [10] deals with SF-268.
For test [11], the system named is RXF 393.
For test [12], the system named is SK-MEL-28.
The test system of test [13] is M14.
The subject of test [14] is K562.
Test [15] concerns SN12C.
Test [16] has as its system NCI-H226.
The test system of test [17] is KM12.
For test [18], the system named is COLO 205.
Test [19] concerns LOX IMVI.
In test [20] the test system is A498.

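Where inhibition never reached the appropriate level, the endpoint shown equals the highest concentration tested. Otherwise, values were interpolated linearly from a five-concentration, 48-hour dose response in 96-well plates. The concentration for 50% growth inhibition is given as GI50.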 Active and inactive are the calls of the source. Rule as the data show it: active = GI50 up to about 1.1 µM and inactive = higher. Where only a bound is given, the exact number is not on record here.

As to `O=c1oc2ccc([N+](=O)[O-])cc2c(Nc2ccc3c(c2)Oc2ccccc2O3)c1[N+](=O)[O-]`, the concentration for 50% growth inhibition (GI50) in test [1] is 31.1 µM; in test [2], 35.2 µM (inactive); in [3], 30.1 µM (inactive); in [4] it was 41.4 µM (inactive); in test [5], 19.2 µM (inactive); in test [6], 25 µM (inactive). For the same compound, the GI50 is 44.3 µM (inactive) in [7]; 31 µM (inactive) in test [8]; 28.6 µM (inactive) in [9]; 48.1 µM (inactive) in [10]; 56 µM (inactive) in test [11]; 39.9 µM (inactive) in [12]. The GI50 is 30.1 µM (inactive) in test [13]; 30 µM (inactive) in [14]; 32.3 µM (inactive) in [15]; 32.4 µM (inactive) in test [16]; 31.9 µM (inactive) in [17]; 21.7 µM (inactive) in test [18]. The GI50 in test [19] was 31.7 µM (inactive).
`CN(C)c1ccc(/C=C/C(=O)CC(=O)/C=C/c2ccc(N(C)C)cc2)cc1`: the GI50 in [1] was over 100 µM; in test [2] it was > 100 µM (inactive); in test [3] it was > 100 µM (inactive); in test [4] it was > 100 µM (inactive); in test [6], > 100 µM (inactive); in test [7] it was > 100 µM (inactive). Besides, the GI50 in [8] was 36.2 µM (inactive); in [9] it was > 100 µM (inactive); in [10], > 100 µM (inactive); in test [11] it was > 100 µM (inactive); in test [12] it was > 100 µM (inactive); in test [13] it was > 100 µM (inactive). In addition, the GI50 in [14] was > 100 µM (inactive); in [15], > 100 µM (inactive); in test [16] it was > 100 µM (inactive); in test [17], > 100 µM (inactive); in test [18] it was > 100 µM (inactive); in [19], 15.7 µM (inactive).
For the compound `CC1=CC(O)(c2ccccc2)C(N2CCOCC2)N1O` (centres undefined), the GI50 in test [1] is over 100 µM; in test [2], > 100 µM (inactive); in test [3] it was 91.4 µM (inactive); in test [4], > 100 µM (inactive); in test [6], > 100 µM (inactive); in test [7], > 100 µM (inactive). The GI50 in [8], in test [9], in test [10], in [12], in test [13] and in test [14] was > 100 µM (inactive) each time. The GI50 in test [15], in [16], in [17], in test [18] and in test [19] was > 100 µM (inactive) throughout.
Regarding `CCCCCC(C(O)C#N)C(O)(C(F)(F)F)C(F)(F)F` (centres undefined), the GI50 in [1] is over 10 µM; in test [2] it was > 10 µM (inactive); in test [3], > 10 µM (inactive); in [4] it was > 10 µM (inactive); in test [5] it was > 10 µM (inactive); in test [6], > 10 µM (inactive). Also, the GI50 in test [7], in test [8], in [9], in test [10], in test [12] and in [13] was > 10 µM (inactive) in each case. The GI50 in [14], in [15], in [17], in test [18] and in test [19] was > 10 µM (inactive) in each case.
`O=C1NN=C2C=C(c3ccc(Cl)cc3)CC(c3cccc(Br)c3)C12` (centres undefined): the GI50 in test [1] is 19.3 µM; in test [2] it was > 100 µM (inactive); in test [3], 22 µM (inactive); in test [4] it was > 100 µM (inactive); in [5], 2.74 µM (inactive); in test [6], 53.7 µM (inactive). The GI50 in [7] was 19.1 µM (inactive); in [8] it was 38.3 µM (inactive); in test [9], 21.2 µM (inactive); in test [10], 68.5 µM (inactive); in [11] it was 62.8 µM (inactive); in test [13], > 100 µM (inactive). Moreover, the GI50 in test [14] is 32.9 µM (inactive); in [15], > 100 µM (inactive); in [16], 73.6 µM (inactive); in [17], > 100 µM (inactive); in [18], > 100 µM (inactive); in test [19], 46.9 µM (inactive).
As for `CC1(C)C(=S)C(C)(C)C1=S`, the GI50 is over 100 µM in [1]; > 100 µM (inactive) in test [2]; > 100 µM (inactive) in test [4]; > 100 µM (inactive) in test [6]; > 100 µM (inactive) in test [7]; > 100 µM (inactive) in test [8]. The GI50 in [9], in test [10], in test [12], in test [13], in test [14] and in [15] was > 100 µM (inactive) throughout. Also, the GI50 in [16], in [17], in [18] and in [19] was > 100 µM (inactive) each time.
Regarding `Cc1ccc(-c2ccc(Nc3c4ccccc4nc4ccccc34)cc2)cn1`, the GI50 in test [1] was 3.75 µM; in test [2], 2.13 µM (inactive); in [5] it was 0.322 µM (active); in test [6] it was 4.97 µM (inactive); in test [7], 5 µM (inactive); in [8], 2.07 µM (inactive). The GI50 in [9] was 5.86 µM (inactive); in test [10], 8.75 µM (inactive); in test [12], 2.51 µM (inactive); in [13] it was 2.95 µM (inactive); in test [14] it was 3.66 µM (inactive); in test [15], 3.89 µM (inactive). Also, the GI50 in [17] is 3.8 µM (inactive); in [18], 3.37 µM (inactive); in [19], 2.71 µM (inactive).
Turning to `CC[C@@H]1CC[C@@H]2[C@H](CC[C@]3(C)[C@@H](O)CC[C@@H]23)[C@H]1CO`, the GI50 is over 100 µM in [1]; 39.3 µM (inactive) in [2]; > 100 µM (inactive) in [3]; > 100 µM (inactive) in test [4]; > 100 µM (inactive) in test [20]; > 100 µM (inactive) in [5]. The GI50 in [6] is 76.4 µM (inactive); in test [7] it was > 100 µM (inactive); in test [9], > 100 µM (inactive); in [10], > 100 µM (inactive); in [11], > 100 µM (inactive); in [12], > 100 µM (inactive). Moreover, the GI50 is > 100 µM (inactive) in test [13]; 51.1 µM (inactive) in test [14]; > 100 µM (inactive) in test [15]; > 100 µM (inactive) in test [16]; > 100 µM (inactive) in test [17]; 79.8 µM (inactive) in test [18]. In addition, the GI50 in test [19] was > 100 µM (inactive).
For `COc1cc(OC)c(C2c3cc4c(cc3OC(N3CCCC3)C2C)OCO4)c(OC)c1` (centres undefined), the GI50 in test [1] is 6.11 µM; in test [2] it was 10.3 µM (inactive); in [3] it was 15.2 µM (inactive); in [6] it was 15.7 µM (inactive); in [7] it was 3.77 µM (inactive); in test [8], 11.1 µM (inactive). For the same compound, the GI50 is 15 µM (inactive) in [9]; 8.49 µM (inactive) in test [10]; 18.4 µM (inactive) in test [12]; 12.2 µM (inactive) in [13]; 19.7 µM (inactive) in test [14]; 15.3 µM (inactive) in test [15]. Also, the GI50 in test [17] is 10.6 µM (inactive); in test [18], > 10 µM (inactive); in test [19] it was 11.9 µM (inactive).
